Test results: paper PMC6040592 (Biochemistry, 2017)

Key:
AaROM [1] = experiment: AaROM in vitro activity assay; format: biochemical, Aquifex aeolicus
E. coli GlpG [2] = target: T1, E. coli GlpG (Escherichia coli, UniProt P09391)
[3] = target: neutrophil elastase, ELA2 (Homo sapiens, UniProt P08246); conditions: same concentration range in which GlpG is inhibited
GlpG = GlpG (Escherichia coli, UniProt P09391); conditions: 1 h preincubation at 10 times IC50, 100-fold dilution, 100 min
wild-type GlpG = wild-type GlpG (Escherichia coli, UniProt P09391); conditions: 50 μM inhibitor, 23 °C overnight
Sequence of wild-type GlpG (P09391 whole entry): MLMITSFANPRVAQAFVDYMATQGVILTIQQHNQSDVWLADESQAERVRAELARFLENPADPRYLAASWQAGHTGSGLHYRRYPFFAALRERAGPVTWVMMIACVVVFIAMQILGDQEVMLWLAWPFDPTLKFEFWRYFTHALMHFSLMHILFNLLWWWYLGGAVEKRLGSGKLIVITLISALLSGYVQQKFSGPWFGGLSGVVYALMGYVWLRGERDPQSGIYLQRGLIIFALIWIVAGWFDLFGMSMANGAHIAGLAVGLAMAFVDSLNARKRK

HiGlpG = HiGlpG (Haemophilus influenzae, UniProt P44783); experiment: Activity-based probe; conditions: 50 μM
Sequence of HiGlpG (P44783 whole entry): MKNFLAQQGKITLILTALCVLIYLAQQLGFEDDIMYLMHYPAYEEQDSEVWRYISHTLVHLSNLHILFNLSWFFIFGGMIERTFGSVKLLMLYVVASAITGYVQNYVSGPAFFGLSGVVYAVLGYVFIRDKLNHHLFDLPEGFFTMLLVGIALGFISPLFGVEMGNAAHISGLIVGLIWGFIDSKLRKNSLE

VcROM = experiment: Activity-based probe; conditions: 50 μM
PsAarA = PsAarA (Providencia stuartii, UniProt P46116); experiment: Activity-based probe; conditions: 50 μM
Sequence of PsAarA (P46116 whole entry): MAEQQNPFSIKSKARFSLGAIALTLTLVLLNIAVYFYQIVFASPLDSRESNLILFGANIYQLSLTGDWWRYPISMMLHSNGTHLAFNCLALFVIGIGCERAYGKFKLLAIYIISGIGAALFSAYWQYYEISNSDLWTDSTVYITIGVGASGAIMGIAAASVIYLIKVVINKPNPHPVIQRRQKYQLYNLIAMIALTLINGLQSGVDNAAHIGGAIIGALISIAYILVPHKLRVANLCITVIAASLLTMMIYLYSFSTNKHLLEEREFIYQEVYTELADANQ

MjROM = experiment: Activity-based probe; conditions: 50 μM
AaROM [4] = experiment: Activity-based probe; conditions: 50 μM
TmROM = experiment: Activity-based probe; conditions: 50 μM
E. coli GlpG [5] = target: T1, E. coli GlpG; experiment: GlpG in vitro activity assay; format: biochemical; conditions: read-out: IC50 [μM] GlpG; inhibitor preincubated 30 min at 37 °C, Gurken substrate, 90 min
[6] = test system: nine different rhomboid proteases; experiment: Activity-based probe; format: binding; conditions: 50 μM
bovine chymotrypsin = bovine chymotrypsin (Bos taurus, UniProt P00766); conditions: read-out: IC50 α-chymotrypsin, value reported in the literature; cited from earlier work
rhomboids = conditions: read-out: IC50 against rhomboids; isocoumarins; cited from earlier work

T1 sequence (P09391 whole entry): as the sequence (P09391 whole entry) above
Sequence of GlpG (P09391 whole entry): as above
Sequence of neutrophil elastase, ELA2 (P08246 30-267): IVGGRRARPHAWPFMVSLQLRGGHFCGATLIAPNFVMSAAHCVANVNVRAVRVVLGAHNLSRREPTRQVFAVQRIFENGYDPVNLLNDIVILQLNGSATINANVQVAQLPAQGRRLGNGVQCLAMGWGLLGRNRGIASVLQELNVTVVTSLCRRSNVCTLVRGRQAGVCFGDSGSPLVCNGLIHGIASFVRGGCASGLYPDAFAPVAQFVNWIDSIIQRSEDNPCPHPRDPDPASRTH

Compound	fold lower potency toward AaROM in comparison to GlpG (AaROM [1])	inhibition of ABP labelling, E. coli GlpG (E. coli GlpG [2])	inhibition of neutrophil elastase, ELA2 [3]	recovery of GlpG activity after rapid dilution (GlpG)	mass shift of inhibitor-GlpG adduct (wild-type GlpG) [Da]	inhibition of ABP labelling, HiGlpG (HiGlpG)	inhibition of ABP labelling, VcROM (VcROM)	inhibition of ABP labelling, PsAarA (PsAarA)	inhibition of ABP labelling, MjROM (MjROM)	inhibition of ABP labelling, AaROM (AaROM [4])	inhibition of ABP labelling, TmROM (TmROM)	IC50 (E. coli GlpG [5]) [µM]	inhibition of the activity of all nine rhomboids [6]	IC50 (bovine chymotrypsin) [µM]	IC50 (rhomboids) [µM]
O=C(OCN1C(=O)c2ccccc2S1(=O)=O)c1ccccc1Cl [BSc5195]	approximately 100 fold	active	appreciable inhibition	less but noticeable recovery of GlpG activity	195	active	active	active	active	only partially inhibited	only partially inhibited	–	–	–	–
O=c1oc(Cl)c(Cl)c2ccccc12 [DCI, dichloroisocoumarin]	–	–	–	–	–	–	–	–	–	–	–	19	80–100%	2.8	–
COc1oc(=O)c2cc(N)ccc2c1Cl [JLK-6, reference compound]	–	–	–	No recovery of enzyme activity	–	–	–	–	–	–	–	–	–	–	~6
